According to the NIST ThermoML archive (doi:10.1021/je030191w):
± gives the expanded uncertainty stated by the source.

Experiment: xn = mol fraction of the nth substance listed
Conditions: 101 kPa, Liquid

CCn1cc[n+](C)c1.F[B-](F)(F)F [1-ethyl-3-methylimidazolium tetrafluoroborate] + O
mass density (293.15 K, x2 = 0): 1340.7 ± 50 kg/m3 | viscosity (293.15 K, x2 = 0): 45.29 ± 2.9 mPa·s | mass density (293.15 K, x2 = 0.0995): 1336.1 ± 50 kg/m3 | viscosity (293.15 K, x2 = 0.0995): 34.43 ± 2.3 mPa·s | mass density (293.15 K, x2 = 0.2062): 1330 ± 50 kg/m3 | viscosity (293.15 K, x2 = 0.2062): 25.1 ± 1.7 mPa·s | mass density (293.15 K, x2 = 0.3047): 1322.9 ± 50 kg/m3 | viscosity (293.15 K, x2 = 0.3047): 19.25 ± 1.3 mPa·s | mass density (293.15 K, x2 = 0.4034): 1313.4 ± 50 kg/m3 | viscosity (293.15 K, x2 = 0.4034): 13.76 ± 0.98 mPa·s | mass density (293.15 K, x2 = 0.5034): 1299.8 ± 50 kg/m3 | viscosity (293.15 K, x2 = 0.5034): 10.36 ± 0.77 mPa·s | mass density (293.15 K, x2 = 0.5998): 1284.2 ± 50 kg/m3 | viscosity (293.15 K, x2 = 0.5998): 7.892 ± 0.61 mPa·s | mass density (293.15 K, x2 = 0.7005): 1262 ± 50 kg/m3 | viscosity (293.15 K, x2 = 0.7005): 5.797 ± 0.48 mPa·s | mass density (293.15 K, x2 = 0.8011): 1225.9 ± 50 kg/m3 | viscosity (293.15 K, x2 = 0.8011): 4.127 ± 0.36 mPa·s | mass density (293.15 K, x2 = 0.9027): 1157.4 ± 50 kg/m3 | viscosity (293.15 K, x2 = 0.9027): 3.035 ± 0.27 mPa·s | mass density (298.15 K, x2 = 0): 1336.7 ± 50 kg/m3 | viscosity (298.15 K, x2 = 0): 37.19 ± 2.4 mPa·s | mass density (298.15 K, x2 = 0.0995): 1332.1 ± 50 kg/m3 | viscosity (298.15 K, x2 = 0.0995): 29.02 ± 1.9 mPa·s | mass density (298.15 K, x2 = 0.2062): 1326 ± 50 kg/m3 | viscosity (298.15 K, x2 = 0.2062): 21.01 ± 1.4 mPa·s | mass density (298.15 K, x2 = 0.3047): 1318.9 ± 50 kg/m3 | viscosity (298.15 K, x2 = 0.3047): 15.96 ± 1.1 mPa·s | mass density (298.15 K, x2 = 0.4034): 1309.5 ± 50 kg/m3 | viscosity (298.15 K, x2 = 0.4034): 11.45 ± 0.84 mPa·s | mass density (298.15 K, x2 = 0.5034): 1296 ± 50 kg/m3 | viscosity (298.15 K, x2 = 0.5034): 8.597 ± 0.66 mPa·s | mass density (298.15 K, x2 = 0.5998): 1280.6 ± 50 kg/m3 | viscosity (298.15 K, x2 = 0.5998): 6.975 ± 0.56 mPa·s | mass density (298.15 K, x2 = 0.7005): 1258.4 ± 50 kg/m3 | viscosity (298.15 K, x2 = 0.7005): 4.822 ± 0.42 mPa·s | mass density (298.15 K, x2 = 0.8011): 1222.3 ± 50 kg/m3 | viscosity (298.15 K, x2 = 0.8011): 3.499 ± 0.31 mPa·s | mass density (298.15 K, x2 = 0.9027): 1154.2 ± 50 kg/m3 | viscosity (298.15 K, x2 = 0.9027): 2.584 ± 0.23 mPa·s | mass density (303.15 K, x2 = 0): 1332.9 ± 50 kg/m3 | viscosity (303.15 K, x2 = 0): 31.36 ± 2.1 mPa·s | mass density (303.15 K, x2 = 0.0995): 1328.3 ± 50 kg/m3 | viscosity (303.15 K, x2 = 0.0995): 24.8 ± 1.7 mPa·s | mass density (303.15 K, x2 = 0.2062): 1322.2 ± 50 kg/m3 | viscosity (303.15 K, x2 = 0.2062): 17.9 ± 1.2 mPa·s | mass density (303.15 K, x2 = 0.3047): 1315.2 ± 50 kg/m3 | viscosity (303.15 K, x2 = 0.3047): 13.58 ± 0.97 mPa·s | mass density (303.15 K, x2 = 0.4034): 1305.8 ± 50 kg/m3 | viscosity (303.15 K, x2 = 0.4034): 9.674 ± 0.72 mPa·s | mass density (303.15 K, x2 = 0.5034): 1292.3 ± 50 kg/m3 | viscosity (303.15 K, x2 = 0.5034): 7.384 ± 0.58 mPa·s | mass density (303.15 K, x2 = 0.5998): 1276.9 ± 50 kg/m3 | viscosity (303.15 K, x2 = 0.5998): 5.492 ± 0.47 mPa·s | mass density (303.15 K, x2 = 0.7005): 1254.8 ± 50 kg/m3 | viscosity (303.15 K, x2 = 0.7005): 3.896 ± 0.34 mPa·s | mass density (303.15 K, x2 = 0.8011): 1218.7 ± 50 kg/m3 | viscosity (303.15 K, x2 = 0.8011): 2.962 ± 0.27 mPa·s | mass density (303.15 K, x2 = 0.9027): 1151.1 ± 50 kg/m3 | viscosity (303.15 K, x2 = 0.9027): 2.189 ± 0.2 mPa·s | mass density (308.15 K, x2 = 0): 1329.6 ± 50 kg/m3 | viscosity (308.15 K, x2 = 0): 25.56 ± 1.7 mPa·s | mass density (308.15 K, x2 = 0.0995): 1324.9 ± 50 kg/m3 | viscosity (308.15 K, x2 = 0.0995): 20.53 ± 1.4 mPa·s | mass density (308.15 K, x2 = 0.2062): 1318.9 ± 50 kg/m3 | viscosity (308.15 K, x2 = 0.2062): 14.58 ± 1 mPa·s | mass density (308.15 K, x2 = 0.3047): 1311.9 ± 50 kg/m3 | viscosity (308.15 K, x2 = 0.3047): 10.93 ± 0.8 mPa·s | mass density (308.15 K, x2 = 0.4034): 1302.5 ± 50 kg/m3 | viscosity (308.15 K, x2 = 0.4034): 8.187 ± 0.63 mPa·s | mass density (308.15 K, x2 = 0.5034): 1288.9 ± 50 kg/m3 | viscosity (308.15 K, x2 = 0.5034): 6.409 ± 0.52 mPa·s | mass density (308.15 K, x2 = 0.5998): 1273.5 ± 50 kg/m3 | viscosity (308.15 K, x2 = 0.5998): 4.707 ± 0.41 mPa·s | mass density (308.15 K, x2 = 0.7005): 1251.4 ± 50 kg/m3 | viscosity (308.15 K, x2 = 0.7005): 3.531 ± 0.31 mPa·s | mass density (308.15 K, x2 = 0.8011): 1215.4 ± 50 kg/m3 | viscosity (308.15 K, x2 = 0.8011): 2.555 ± 0.23 mPa·s | mass density (308.15 K, x2 = 0.9027): 1148 ± 50 kg/m3 | viscosity (308.15 K, x2 = 0.9027): 1.898 ± 0.17 mPa·s | mass density (313.15 K, x2 = 0): 1325.9 ± 50 kg/m3 | viscosity (313.15 K, x2 = 0): 21.54 ± 1.5 mPa·s | mass density (313.15 K, x2 = 0.0995): 1321.2 ± 50 kg/m3 | viscosity (313.15 K, x2 = 0.0995): 17.96 ± 1.2 mPa·s | mass density (313.15 K, x2 = 0.2062): 1315.2 ± 50 kg/m3 | viscosity (313.15 K, x2 = 0.2062): 12.68 ± 0.91 mPa·s | mass density (313.15 K, x2 = 0.3047): 1308.1 ± 50 kg/m3 | viscosity (313.15 K, x2 = 0.3047): 9.634 ± 0.72 mPa·s | mass density (313.15 K, x2 = 0.4034): 1298.7 ± 50 kg/m3 | viscosity (313.15 K, x2 = 0.4034): 7.165 ± 0.57 mPa·s | mass density (313.15 K, x2 = 0.5034): 1285.3 ± 50 kg/m3 | viscosity (313.15 K, x2 = 0.5034): 5.465 ± 0.46 mPa·s | mass density (313.15 K, x2 = 0.5998): 1269.7 ± 50 kg/m3 | viscosity (313.15 K, x2 = 0.5998): 4.159 ± 0.36 mPa·s | mass density (313.15 K, x2 = 0.7005): 1247.5 ± 50 kg/m3 | viscosity (313.15 K, x2 = 0.7005): 3.133 ± 0.28 mPa·s | mass density (313.15 K, x2 = 0.8011): 1211.8 ± 50 kg/m3 | viscosity (313.15 K, x2 = 0.8011): 2.267 ± 0.21 mPa·s | mass density (313.15 K, x2 = 0.9027): 1145 ± 50 kg/m3 | viscosity (313.15 K, x2 = 0.9027): 1.689 ± 0.16 mPa·s | mass density (318.15 K, x2 = 0): 1322.2 ± 50 kg/m3 | viscosity (318.15 K, x2 = 0): 18.84 ± 1.3 mPa·s | mass density (318.15 K, x2 = 0.0995): 1317.6 ± 50 kg/m3 | viscosity (318.15 K, x2 = 0.0995): 15.93 ± 1.1 mPa·s | mass density (318.15 K, x2 = 0.2062): 1311.6 ± 50 kg/m3 | viscosity (318.15 K, x2 = 0.2062): 11.16 ± 0.82 mPa·s | mass density (318.15 K, x2 = 0.3047): 1304.5 ± 50 kg/m3 | viscosity (318.15 K, x2 = 0.3047): 8.324 ± 0.64 mPa·s | mass density (318.15 K, x2 = 0.4034): 1295 ± 50 kg/m3 | viscosity (318.15 K, x2 = 0.4034): 6.357 ± 0.52 mPa·s | mass density (318.15 K, x2 = 0.5034): 1281.6 ± 50 kg/m3 | viscosity (318.15 K, x2 = 0.5034): 4.979 ± 0.43 mPa·s | mass density (318.15 K, x2 = 0.5998): 1266 ± 50 kg/m3 | viscosity (318.15 K, x2 = 0.5998): 3.63 ± 0.32 mPa·s | mass density (318.15 K, x2 = 0.7005): 1243.9 ± 50 kg/m3 | viscosity (318.15 K, x2 = 0.7005): 2.584 ± 0.23 mPa·s | mass density (318.15 K, x2 = 0.8011): 1208.2 ± 50 kg/m3 | viscosity (318.15 K, x2 = 0.8011): 2.044 ± 0.19 mPa·s | mass density (318.15 K, x2 = 0.9027): 1141.8 ± 50 kg/m3 | viscosity (318.15 K, x2 = 0.9027): 1.53 ± 0.14 mPa·s | mass density (323.15 K, x2 = 0): 1319.5 ± 50 kg/m3 | viscosity (323.15 K, x2 = 0): 15.9 ± 1.1 mPa·s | mass density (323.15 K, x2 = 0.0995): 1314.8 ± 50 kg/m3 | viscosity (323.15 K, x2 = 0.0995): 13.74 ± 0.98 mPa·s | mass density (323.15 K, x2 = 0.2062): 1308.8 ± 50 kg/m3 | viscosity (323.15 K, x2 = 0.2062): 9.797 ± 0.73 mPa·s | mass density (323.15 K, x2 = 0.3047): 1301.6 ± 50 kg/m3 | viscosity (323.15 K, x2 = 0.3047): 7.47 ± 0.59 mPa·s | mass density (323.15 K, x2 = 0.4034): 1292 ± 50 kg/m3 | viscosity (323.15 K, x2 = 0.4034): 5.692 ± 0.48 mPa·s | mass density (323.15 K, x2 = 0.5034): 1278.6 ± 50 kg/m3 | viscosity (323.15 K, x2 = 0.5034): 4.522 ± 0.4 mPa·s | mass density (323.15 K, x2 = 0.5998): 1263.1 ± 50 kg/m3 | viscosity (323.15 K, x2 = 0.5998): 3.215 ± 0.29 mPa·s | mass density (323.15 K, x2 = 0.7005): 1240.7 ± 50 kg/m3 | viscosity (323.15 K, x2 = 0.7005): 2.512 ± 0.23 mPa·s | mass density (323.15 K, x2 = 0.8011): 1205 ± 50 kg/m3 | viscosity (323.15 K, x2 = 0.8011): 1.904 ± 0.18 mPa·s | mass density (323.15 K, x2 = 0.9027): 1138.5 ± 50 kg/m3 | viscosity (323.15 K, x2 = 0.9027): 1.439 ± 0.14 mPa·s
